Experimental data reported in ChEMBL document CHEMBL3872242, “Anti-inflammatory tetraquinane diterpenoids from a Crinipellis species” (Bioorg Med Chem, 2017).
pIC50: −log10 of the molar value. Active and inactive are the calls of the source. The calls are words filed in the database; no cut-off is given here.

Experiments:
MONO-MAC-6 [1] = test: Inhibition of LPS/INF-gamma induced CXCL10 promoter dependent transcription activity in human MONO-MAC-6 cells measured after 4 hrs by luciferase reporter gene assay; type: functional
[2] = Effect on constitutive activity of EF-1alpha expressed in human MONO-MAC-6 cells up to 50 uM measured after 4 hrs by luciferase reporter gene assay; type: ADME, cell-based; details: mono-mac-6, 4 h
[3] = Cytotoxicity against human MONO-MAC-6 cells up to 50 uM measured after 24 hrs by XTT assay; type: toxicity, cell-based; details: mono-mac-6, 24 h
[4] = Inhibition of NF-kappaB (unknown origin) expressed in LPS/INF-gamma-stimulated human MONO-MAC-6 cells measured after 4 hrs by luciferase reporter gene assay; type: cell-based; details: MONO-MAC-6, 4 h
[5] = Inhibition of IRF (unknown origin) expressed in LPS/INF-gamma-stimulated human MONO-MAC-6 cells assessed as reduction in ISRE dependent transcription activity measured after 4 hrs by luciferase reporter gene assay; type: cell-based; details: MONO-MAC-6, 4 h
MONO-MAC-6 [6] = test: Inhibition of human THP1 cells derived IL-8 promoter dependent transcription activity expressed in LPS/INF-gamma stimulated human MONO-MAC-6 cells measured after 4 hrs by luciferase reporter gene assay; type: functional, cell-based; details: MONO-MAC-6, 4 h
[7] = Down regulation of TNF-alpha mRNA expression in LPS/INF-gamma stimulated human MONO-MAC-6 cells at 16.54 uM preincubated for 1 hr followed by LPS/INF-gamma stimulation measured after 4 hrs by quantitative RT-PCR analysis; type: functional, cell-based
[8] = Down regulation of IL-6 mRNA expression in LPS/INF-gamma stimulated human MONO-MAC-6 cells at 16.54 uM preincubated for 1 hr followed by LPS/INF-gamma stimulation measured after 4 hrs by quantitative RT-PCR analysis; type: functional, cell-based
[9] = Downregulation of CXCL10 mRNA expression in human MONO-MAC-6 cells at 16.54 uM preincubated for 1 hr followed by LPS/INF-gamma stimulation measured after 4 hrs by quantitative RT-PCR analysis; type: functional, cell-based
[10] = Down regulation of COX-2 mRNA expression in LPS/INF-gamma stimulated human MONO-MAC-6 cells at 16.54 uM preincubated for 1 hr followed by LPS/INF-gamma stimulation measured after 4 hrs by quantitative RT-PCR analysis; type: functional, cell-based
[11] = Down regulation of CCL2 mRNA expression in LPS/INF-gamma stimulated human MONO-MAC-6 cells at 16.54 uM preincubated for 1 hr followed by LPS/INF-gamma stimulation measured after 4 hrs by quantitative RT-PCR analysis; type: functional, cell-based
[12] = Down regulation of IL-8 mRNA expression in LPS/INF-gamma stimulated human MONO-MAC-6 cells at 16.54 uM preincubated for 1 hr followed by LPS/INF-gamma stimulation measured after 4 hrs by quantitative RT-PCR analysis; type: functional, cell-based
MONO-MAC-6 [13] = test: Inhibition of IL-6 mRNA expression in LPS/INF-gamma stimulated human MONO-MAC-6 cells at 16.54 uM preincubated for 1 hr followed by LPS/INF-gamma stimulation measured after 16 hrs; type: functional, cell-based
MONO-MAC-6 [14] = test: Inhibition of TNF-alpha mRNA expression in LPS/INF-gamma stimulated human MONO-MAC-6 cells at 16.54 uM preincubated for 1 hr followed by LPS/INF-gamma stimulation measured after 16 hrs; type: functional, cell-based
MONO-MAC-6 [15] = test: Inhibition of IL-23 mRNA expression in LPS/INF-gamma stimulated human MONO-MAC-6 cells at 16.54 uM preincubated for 1 hr followed by LPS/INF-gamma stimulation measured after 16 hrs; type: functional, cell-based
MONO-MAC-6 [16] = test: Inhibition of CXCL1 mRNA expression in LPS/INF-gamma stimulated human MONO-MAC-6 cells at 16.54 uM preincubated for 1 hr followed by LPS/INF-gamma stimulation measured after 16 hrs; type: functional, cell-based
MONO-MAC-6 [17] = test: Inhibition of CXCL10 mRNA expression in LPS/INF-gamma stimulated human MONO-MAC-6 cells at 16.54 uM preincubated for 1 hr followed by LPS/INF-gamma stimulation measured after 16 hrs; type: functional, cell-based
MONO-MAC-6 [18] = test: Inhibition of CXCL11 mRNA expression in LPS/INF-gamma stimulated human MONO-MAC-6 cells at 16.54 uM preincubated for 1 hr followed by LPS/INF-gamma stimulation measured after 16 hrs; type: functional, cell-based
MONO-MAC-6 [19] = test: Inhibition of IL-8 mRNA expression in LPS/INF-gamma stimulated human MONO-MAC-6 cells at 16.54 uM preincubated for 1 hr followed by LPS/INF-gamma stimulation measured after 16 hrs; type: functional, cell-based
MONO-MAC-6 [20] = test: Inhibition of CCL1 mRNA expression in LPS/INF-gamma stimulated human MONO-MAC-6 cells at 16.54 uM preincubated for 1 hr followed by LPS/INF-gamma stimulation measured after 16 hrs; type: functional, cell-based
MONO-MAC-6 [21] = test: Inhibition of CCL3 mRNA expression in LPS/INF-gamma stimulated human MONO-MAC-6 cells at 16.54 uM preincubated for 1 hr followed by LPS/INF-gamma stimulation measured after 16 hrs; type: functional, cell-based
[22] = Effect on GAPDH mRNA expression in human MONO-MAC-6 cells at 3.31 to 16.54 uM preincubated for 1 hr followed by LPS/INF-gamma stimulation measured after 4 hrs by quantitative RT-PCR analysis; type: ADME, cell-based; details: mono-mac-6, 4 h

For `C=C[C@H]1CC[C@]23C[C@@H]4[C@H](C)C(=O)[C@H]5O[C@]54[C@@]2(C)C[C@H](O)[C@]13C`, the inhibition (MONO-MAC-6 [1]) was “Dose-dependent effect”, the Activity [2] was “Non-Toxic” and the Activity [3] was “Non-Toxic”. The pIC50 [4] was 5.52 to 5.57, the pIC50 [5] was 5.92 to 6.00 and the pIC50 (MONO-MAC-6 [6]) was 5.82 to 5.89. For the same molecule, the Activity [7] was “Active”, the Activity [8] was “Active” and the Activity [9] was “Active”. For the same molecule, the Activity [10] was “Active”, the Activity [11] was “Active” and the Activity [12] was “Active”. The inhibition (MONO-MAC-6 [13]) was “Active”, the inhibition (MONO-MAC-6 [14]) was “Active” and the inhibition (MONO-MAC-6 [15]) was “Active”. For the same molecule, the inhibition (MONO-MAC-6 [16]) was “Active”, the inhibition (MONO-MAC-6 [17]) was “Active” and the inhibition (MONO-MAC-6 [18]) was “Active”. The inhibition (MONO-MAC-6 [19]) was “Active”, the inhibition (MONO-MAC-6 [20]) was “Active” and the inhibition (MONO-MAC-6 [21]) was “Active”. The Activity [22] was “Non-Toxic”.
